Measurements: patent US20070009895A1, “Method of interaction analysis and interaction analyzer” (priority 2003, published 2007)

Target: human FKBP12 (Homo sapiens, UniProt P62942)
Conditions: Measurement 3; first solutions of two or three samples, one of them 100 μM FKBP12, others HSA
Source text: An apparatus for analyzing interactions in this example includes a column TSK super SW2000 for size exclusion chromatography (column size: 1.0 ID×10 mm, 1.0 ID×30 mm or 1.0 ID×100 mm, manufactured by Tosoh Corporation) for a separation channel 1. The apparatus for analyzing interactions also includes an auto injector HTC-PAL (manufactured by CTC Analytics AG) for a container section 3, and a LC pump (Agilent 1100, manufactured by Yokogawa) for an introduction device 4. The apparatus for analyzing interactions also includes an ion trap mass spectrometer LCQ deca XP (ThermoQuest) for a detection device 5.
The auto injector HTC-PAL (CTC Analytics AG) includes a sample loop of 5 μL or 10 μL, a syringe of 10 μL, and sample trays with a cooling unit. A first solution was introduced by 50 μL into a 2 mL screw vial with a conical insert of 100 μL inserted therein. A screw cap with a septum was put on the vial and the vial was placed in a 54 vial rack and the rack was set in one of the sample trays. A second solution was introduced by 40 μL into each well of a 384 well-microplate, and the microplate was covered with an aluminum seal and set in another sample tray. The sample trays were set at the temperature of 10 degrees C. […]

Sequence of human FKBP12 (P62942 whole entry): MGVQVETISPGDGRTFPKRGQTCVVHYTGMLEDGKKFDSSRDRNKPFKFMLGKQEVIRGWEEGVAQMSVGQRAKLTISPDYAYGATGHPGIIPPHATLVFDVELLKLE

CC[C@@H]1/C=C(\C)C[C@H](C)C[C@H](OC)[C@H]2O[C@@](O)(C(=O)C(=O)N3CCCC[C@H]3C(=O)O[C@H](/C(C)=C/[C@@H]3CC[C@@H](O)[C@H](OC)C3)[C@H](C)[C@@H](O)CC1=O)[C@H](C)C[C@@H]2OC [Ascomycin] was tested, and the “interaction with FKBP12 (peaks in mass chromatogram of the compound)” value was “interaction between Ascomycin and FKBP12 is able to be detected”.
